Consider 10 test systems from the supplement of paper PMC10331698.

Compound in assay [1]: OCC(F)(F)C(F)(F)C(F)(F)C(F)(F)C(F)(F)C(F)(F)C(F)(F)C(F)(F)C(F)(F)C(F)(F)C(F)(F)F [11:1 Fluorotelomer alcohol]
The experiment in a line: level (log10 ratio to DMSO vehicle control); higher = higher biomarker level / cell amount than vehicle control. The following applies: in DMSO. As for the experimental part:
(§1)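 BioMAP Diversity Plus panel of 12 human primary cell co-culture systems (3C, 4H, LPS, SAg, BT, BF4T, BE3C, CASM3C, HDF3CGF, KF3CT, MyoF, Mphg). Compounds were added 1 h before stimulation and left for 24 h (MyoF 48 h; BT 72 h for soluble read-outs or 6 d for IgG). Biomarkers were read by ELISA, cytotoxicity by SRB, PBMC viability and proliferation by Alamar Blue. Each well value was divided by the mean of 8 DMSO control wells on the same plate and log10 transformed; duplicate blinded samples were tested at 4 concentrations.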

Compound in assay [2]: O=P(O)(O)CCC(F)(F)C(F)(F)C(F)(F)C(F)(F)C(F)(F)C(F)(F)F [2-(Perfluorohexyl)ethylphosphonic acid]
Described as above. Conditions: in DMSO. As for the experimental part: as §1

± gives the standard deviation of the averaged measurements.

Regarding KF3CT:IL-1alpha, the “level (log10)” value was 0.0015 ± 0.028 in assay [1] (1100 nM); -0.0425 ± 0.0064 in assay [1] (3300 nM); -0.021 ± 0.011 in assay [1] (10000 nM); 0.0005 ± 0.0078 in assay [2] (6700 nM); 0.0225 ± 0.00071 in assay [2] (20000 nM); 0.0455 ± 0.012 in assay [2] (60000 nM).

Consider lMphg:M-CSF, for which the “level (log10)” value is -0.0045 ± 0.005 in assay [1] (1100 nM); -0.0195 ± 0.0078 in assay [1] (3300 nM); -0.0735 ± 0.016 in assay [1] (10000 nM); -0.0175 ± 0.016 in assay [2] (6700 nM); -0.0335 ± 0.015 in assay [2] (20000 nM); -0.0075 ± 0.016 in assay [2] (60000 nM).

Turning to MyoF:SRB, the “level (log10)” value in assay [1] (1100 nM) is 0 ± 0.0042; in assay [1] (3300 nM), -0.0015 ± 0.012; in assay [1] (10000 nM) it was 0.0015 ± 0.016; in assay [2] (6700 nM), -0.0075 ± 0.011; in assay [2] (20000 nM) it was -0.004 ± 0.0071; in assay [2] (60000 nM), -0.007 ± 0.0057.

On to lMphg:CCL3/MIP-1alpha, for which the “level (log10)” value was 0.014 ± 0.011 in assay [1] (1100 nM); -0.0165 ± 0.026 in assay [1] (3300 nM); -0.06 ± 0.021 in assay [1] (10000 nM); 0.035 ± 0.044 in assay [2] (6700 nM); 0.019 ± 0.028 in assay [2] (20000 nM); 0.0315 ± 0.019 in assay [2] (60000 nM).

In the case of MyoF:Collagen III, the “level (log10)” value was 0.011 ± 0.0085 in assay [1] (1100 nM); -0.0005 ± 0.00071 in assay [1] (3300 nM); -0.001 ± 0.0071 in assay [1] (10000 nM); 0.003 ± 0.0042 in assay [2] (6700 nM); 0.009 ± 0.0014 in assay [2] (20000 nM); -0.009 ± 0.031 in assay [2] (60000 nM).

For MyoF:Decorin, the “level (log10)” value in assay [1] (1100 nM) was 0.0065 ± 0.028; in assay [1] (3300 nM) it was 0.013 ± 0.021; in assay [1] (10000 nM) it was 0.0255 ± 0.0021; in assay [2] (6700 nM) it was -0.0035 ± 0.023; in assay [2] (20000 nM), 0.0075 ± 0.0021; in assay [2] (60000 nM) it was 0.0385 ± 0.00071.

For the test system HDF3CGF:CCL2/MCP-1, the “level (log10)” value is 0.0305 ± 0.033 in assay [1] (1100 nM); 0.0075 ± 0.0064 in assay [1] (3300 nM); 0.0095 ± 0.015 in assay [1] (10000 nM); -0.0335 ± 0.0021 in assay [2] (6700 nM); -0.013 ± 0.023 in assay [2] (20000 nM); -0.053 ± 0.023 in assay [2] (60000 nM).

As for 3C:CD62E/E-Selectin, the “level (log10)” value in assay [1] (1100 nM) is -0.0125 ± 0.013; in assay [1] (3300 nM) it was 0.008 ± 0.0028; in assay [1] (10000 nM), 0.0155 ± 0.0078; in assay [2] (6700 nM), -0.0115 ± 0.0078; in assay [2] (20000 nM), 0 ± 0.0085; in assay [2] (60000 nM) it was -0.001 ± 0.024.

Regarding HDF3CGF:CD106/VCAM-1, the “level (log10)” value in assay [1] (1100 nM) was -0.075 ± 0.011; in assay [1] (3300 nM) it was -0.144 ± 0.013; in assay [1] (10000 nM), -0.069 ± 0.075; in assay [2] (6700 nM), 0.041 ± 0.013; in assay [2] (20000 nM), 0.0625 ± 0.013; in assay [2] (60000 nM), 0 ± 0.0057.

For the test system KF3CT:MMP-9, the “level (log10)” value was -0.042 ± 0.0099 in assay [1] (1100 nM); -0.071 ± 0.027 in assay [1] (3300 nM); -0.0545 ± 0.026 in assay [1] (10000 nM); -0.0305 ± 0.012 in assay [2] (6700 nM); -0.024 ± 0.0071 in assay [2] (20000 nM); -0.0565 ± 0.026 in assay [2] (60000 nM).
